Source: patent US20070166710A1, “Methods for inhibiting adipogenesis and for treating type 2 diabetes” (priority 2003, published 2007)

How the values were obtained:
Foxa-2 [1] = experiment: Immunofluorescence of subcellular distribution of endogenous Foxa-2 in HepG2 cells; format: cell-based; conditions: insulin 50 nM
Description: Immunofluorescence microscopy. Cells were fixed for 30 minutes at room temperature with 2% paraformaldehyde. For immunofluorescent detection of Foxa-1 or Foxa-2, fixed cells were incubated with respective polyclonal antibodies (1:100) (Ruiz i Altaba et al. (1993) Mech. Dev. 44: 91-108) overnight at 4° C. After washing, the cells were treated with anti rabbit IgG secondary antibody linked to Alexa Fluor 488 (Molecular Probes). Immunofluorescent staining was visualized using laser-scanning micrsocopy. To determine whether Akt-induced phosporylation of Foxa-2 has an effect on the subcellular distribution of this transcription factor, the following experiment was performed. HepG2 cells were grown to 60% confluency and endogenous Foxa-1 and Foxa-2 proteins were visualized by immunofluorescence after staining with anti Foxa-1 and Foxa-2 antibodies. Cells were either examined in the absence or presence of insulin (50 nM) and/or Ly294002 or PD98059, and after transfection with either Akt1 or Akt2 expression vectors (FIG. 5B). […] Treatment of cells with MAPKK1 inhibitor PD98059 had no effect on insulin stimulated nuclear exclusion of Foxa-2. The subcellular distribution of Foxa-2 in cells that were stimulated with insulin and expressed a dominant negative form of Akt (Akt[…]) were resistant to nuclear exclusion. […]

Foxa-2 [2] = experiment: Nuclear Foxa-2 in perfused livers, immunoblotting; format: in vivo, mice

insulin: Insulin was from Sigma; hormone used as stimulus
subcellular localization of endogenous Foxa-2 (Foxa-2 [1]): efficiently excluded from the nucleus
increase in nuclear Foxa-2 levels (Foxa-2 [2]; in response to insulin stimulation, within 5-20 minutes): > 20 fold
change in nuclear Foxa-2 expression (Foxa-2 [2]; livers exposed to low (fasting) vs high (postprandial) insulin levels): > 20 fold
nuclear Foxa-2 level (Foxa-2 [2]; perfusion with 2.0 ng/ml insulin, 20 minutes): barely detectable levels
